Experimental findings from patent publication US4598075A, “Cephalosporin compounds” (Tanabe Seiyaku Co., Ltd., priority 1982, dated 1986) are described below.

Molecules are shown by their SMILES. Converted amounts (≈) assume the structure as drawn. Where two headings read alike, the source gives them in different places.

For data set [1], the system named is Streptococcus faecalis CN-478. Briefly: MIC by standard agar plate dilution method. The conditions noted are these: Enterococcus faecalis. It is filed as cell-based. The source says: The cephalosporin compound (I) of the present invention and pharmaceutically acceptable salts thereof show potent antimicrobial activity against a wide variety of microorganisms including those belonging to the genera Streptococcus (e.g., St. faecalis, St. pneumoniae), Staphylococcus (e.g., S. aureus, S. epidermidis) and Pseudomonas (e.g., Ps. aeruginosa, Ps. putida, Ps. stutzeri), and are particularly characterized by their potent antimicrobial activity against both gram-positive and gram-negative bacteria. […] The antimicrobial activity of 7β{(Z)-2-(2-aminothiazol-4-yl)-2-[(2-pyrrolidon-3-yl)oxyimino]-acetamido}-3-[(1-methyl-1H-tetrazol-5-yl)thio-methyl]-3-cephem-4-carboxylic acid against Staphylococcus aureus 252R is also more than 16 times stronger than those of Cefmenoxime and Ceftazidime. Moreover, the compound (I) and a salt thereof show potent antimicrobial activity against bacteria belonging to the genera Bacillus (e.g., B. subtilis), Escherichia (e.g., E. coli), Klebsiella (e.g., K. pneumoniae), Enterobacter (e.g., E. aerogenes, E. cloacae) and Serratia (e.g., S. marcescens).
(§1) The minimum inhibitory concentration (MIC, μg/ml) of a test compound was determined by means of a standard agar plate dilution method (based on the standard method of Japan Society of Chemotherapy). Media used in these experiments were Mueller-Hinton agar (MHA; Nissui).

The test system of data set [2] is Staphylococcus aureus 252R. Briefly: MIC by standard agar plate dilution method. Type of data set: cell-based. Here is the method: as §1
The test system of data set [3] is Staphylococcus aureus Smith. Briefly: MIC by standard agar plate dilution method. The note with it: read-out: M.I.C. (in parentheses). It is filed as cell-based. Here is the method: as §1
(§2) The results are shown in the following Table 2 together with the M. I. C. (μg/ml) of the test compound which was estimated in the same manner as described in Experiment I.

The subject of data set [4] is Serratia marcescens 7006. Briefly: MIC by standard agar plate dilution method. It is filed as cell-based. Here is the method: as §1, §2
The subject of data set [5] is Citrobacter freundii 916. Briefly: MIC by standard agar plate dilution method. Type of data set: cell-based. Here is the method: as §1, §2
Data set [6] relates to Escherichia coli KC-14. Briefly: MIC by standard agar plate dilution method. It is filed as cell-based. The conditions noted are these: KC14, Table 2, read-out: M.I.C. (in parentheses). On the procedure:
as §1, §2

Data set [7] concerns Enterobacter aerogenes 816. Briefly: MIC by standard agar plate dilution method. It is filed as cell-based. Here is the method:
as §1, §2

Data set [8] has as its system Staphylococcus aureus Terajima. Kind of data set: MIC by standard agar plate dilution method. The note with it: Table 1, Mueller-Hinton agar. It is filed as cell-based. On the procedure: as §1
Data set [9] has as its system Klebsiella pneumoniae 5038. Briefly: MIC by standard agar plate dilution method. Type of data set: cell-based. The conditions noted are these: Table 1, Mueller-Hinton agar. On the procedure:
as §1

The test system of data set [10] is Enterobacter cloacae TU-680. Kind of data set: MIC by standard agar plate dilution method. It is filed as cell-based. The conditions noted are these: TU680, Table 1, Mueller-Hinton agar. Here is the method:
as §1

Data set [11] concerns Pseudomonas aeruginosa 4096. Kind of data set: MIC by standard agar plate dilution method. It is filed as cell-based. The conditions noted are these: Table 1, Mueller-Hinton agar. Here is the method: as §1
Data set [12] deals with Pseudomonas putida ATCC 12633. Briefly: MIC by standard agar plate dilution method. It is filed as cell-based. The conditions noted are these: ATCC12633, Table 1, Mueller-Hinton agar. Here is the method: as §1
For data set [13], the system named is Bacillus subtilis ATCC 6633. Kind of data set: MIC by standard agar plate dilution method. It is filed as cell-based. The conditions noted are these: ATCC6633, Table 1, Mueller-Hinton agar. Here is the method:
as §1

In data set [14] the test system is Staphylococcus aureus Smith. Briefly: Protective effects on bacterial infections in mice. It is filed as in vivo. The note with it: im, 168 h. Here is the method:
(§3) Ten male mice weighing 20±1 g were used for each dose level. Mice were challenged via the intraperitoneal route with sufficient bacteria to kill all non-treated mice within 24 hours. All bacteria were suspended in 6 % mucin. A test compound were administered intramuscularly one hour after the infection. Survival ratios were determined 7 days after the infection. The median effective doses (ED50, mg/kg) of the test compound were estimated by the probito analysis.

Data set [15] has as its system Serratia marcescens 7006. Briefly: Protective effects on bacterial infections in mice. It is filed as in vivo. The note with it: 168 h. Here is the method: as §3
The test system of data set [16] is Citrobacter freundii 916. Briefly: Protective effects on bacterial infections in mice. It is filed as in vivo. The conditions noted are these: 168 h. On the procedure:
as §3

The test system of data set [17] is Escherichia coli KC-14. Kind of data set: Protective effects on bacterial infections in mice. The conditions noted are these: KC14, im, 168 h, intramuscular one hour after intraperitoneal infection, survival at 7 days. Type of data set: in vivo. Here is the method:
as §3

The test system of data set [18] is Enterobacter aerogenes 816. Briefly: Protective effects on bacterial infections in mice. It is filed as in vivo. The note with it: 168 h. Here is the method: as §3
Data set [19] can be described thus: Subcutaneous administration to SD-male rats for 14 consecutive days. Type of data set: in vivo. The note with it: dose of 1000 mg for 14 consecutive days. On the procedure:
For example, no rats die even after 7β-{(Z)-2-(2-aminothiazol-4-yl)-2-[(2-pyrrolidon-3-yl)oxyimino]acetamido}-3-(1-pyridiniomethyl)-3-cephem-4-carboxylate (l-isomer) is administered subcutaneously to SD-male rats at a dose of 1000 mg for 14 consecutive days.

Where [20] appears, read: CN478, agar dilution method, cultured for 20 hours at 37° C., Streptococcus faecalis CN 478, read-out: minimum inhibitory concentration (M.I.C.).
Setting [21] is: Table 2, Staphylococcus aureus Smith.
The mark [22] stands for this setting: Table 1, Mueller-Hinton agar, Serratia marcescens 7006, read-out: M.I.C.
Setting [23] is: Table 2, Serratia marcescens 7006, read-out: M.I.C. (in parentheses).
Setting [24] is: Table 2, Citrobacter freundii 916, read-out: M.I.C. (in parentheses).
Where [25] appears, read: Klebsiella aerogenes, Table 2, Enterobacter aerogenes 816, read-out: M.I.C. (in parentheses).
Where [26] appears, read: Table 1, Mueller-Hinton agar, Staphylococcus aureus 252R, read-out: M.I.C.
[27] abbreviates: Staphylococcus aureus Smith, intramuscular one hour after intraperitoneal infection, survival at 7 days, read-out: ED50.
Where [28] appears, read: im, Serratia marcescens 7006, intramuscular one hour after intraperitoneal infection, survival at 7 days, read-out: ED50.
The mark [29] stands for this setting: im, Citrobacter freundii 916, intramuscular one hour after intraperitoneal infection, survival at 7 days, read-out: ED50.
Where [30] appears, read: Klebsiella aerogenes, im, Enterobacter aerogenes 816, intramuscular one hour after intraperitoneal infection, survival at 7 days, read-out: ED50.
[31] abbreviates: CN478, Table 1, Mueller-Hinton agar, Streptococcus faecalis CN-478, read-out: M.I.C.

Turning to `CN1CCC(O/N=C(\C(=O)N[C@@H]2C(=O)N3C(C(=O)O)=C(CSc4nnnn4C)CS[C@H]23)c2csc(N)n2)C1=O` (stereo partly drawn) [7β-{(Z)-2-(2-aminothiazol-4-yl)-2-[(1-methyl-2-pyrrolidon-3-yl)oxyiminoacetamido}-3-[(1-methyl-1H-tetrazol-5-yl)thiomethyl]-3-cephem-4-carboxylic acid], the MIC in data set [1] (setting [20]) is 25 µg/mL (≈ 42 µM).
For `Cn1nnnc1SCC1=C(C(=O)O)N2C(=O)[C@@H](NC(=O)/C(=N\OC3CCNC3=O)c3csc(N)n3)[C@H]2SC1` (stereo partly drawn) [7β{(Z)-2-(2-aminothiazol-4-yl)-2-[(2-pyrrolidon-3-yl)oxyimino]-acetamido}-3-[(1-methyl-1H-tetrazol-5-yl)thio-methyl]-3-cephem-4-carboxylic acid], the “antimicrobial activity stronger than those of Cefmenoxime and Ceftazidime” value in data set [2] (Staphylococcus aureus 252R, relative to Cefmenoxime and Ceftazidime) is reported as “more than 16 times”.
Take `CO/N=C(\C(=O)N[C@@H]1C(=O)N2C(C(=O)O)=C(CSc3nnnn3C)CS[C@H]12)c1csc(N)n1` [Cefmenoxime, 7β-[(Z)-2-(2-aminothiazol-4-yl)-2-(methoxyimino)acetamido]-3-[(1-methyl-1H-tetrazol-5-yl)thiomethyl]-3-cephem-4-carboxylic acid]: the MIC in data set [3] (setting [21]) amounted to 1.56 µg/mL (≈ 3.05 µM); in the data set on Serratia marcescens 7006 [4] (setting [22]), 0.2 µg/mL (≈ 0.391 µM); in the data set with Serratia marcescens 7006 [4] (setting [23]) it was 0.2 µg/mL (≈ 0.391 µM); in the data set with Citrobacter freundii 916 [5] (setting [24]) it was 0.05 µg/mL (≈ 0.0977 µM); in the data set with Escherichia coli KC-14 [6], 0.025 µg/mL (≈ 0.0489 µM); in data set [7] (setting [25]), 1.56 µg/mL (≈ 3.05 µM). Also, the MIC in data set [8] was 1.56 µg/mL (≈ 3.05 µM); in data set [2] (setting [26]), greater than 100 µg/mL; in [9], 0.1 µg/mL (≈ 0.195 µM); in data set [10], 0.1 µg/mL (≈ 0.195 µM); in [11], 6.25 µg/mL (≈ 12.2 µM); in data set [12] it was 100 µg/mL (≈ 195 µM). Also, the results for the MIC in data set [13], in data set [1] (setting [31]) and in data set [1] (setting [20]) were 1.56 µg/mL (≈ 3.05 µM), greater than 100 µg/mL and greater than 100 µg/mL, respectively. Also, the ED50 in [14] (setting [27]) worked out at 5.32 mg/kg; in the data set on Serratia marcescens 7006 [15] (setting [28]) it was 0.88 mg/kg; in the data set with Citrobacter freundii 916 [16] (setting [29]), 0.19 mg/kg; in the data set on Escherichia coli KC-14 [17], 0.16 mg/kg; in [18] (setting [30]), 23.9 mg/kg.
On to `CC(C)(O/N=C(\C(=O)N[C@@H]1C(=O)N2C(C(=O)[O-])=C(C[n+]3ccccc3)CS[C@H]12)c1csc(N)n1)C(=O)O` [Ceftazidime, 7β-[(Z)-2-(2-aminothiazol-4-yl)-2-(2-carboxyprop-2-yloxyimino)acetamido]-3-(1-pyridiniomethyl)-3-cephem-4-carboxylate], for which the MIC in [3] (Staphylococcus aureus) is 12.5 µg/mL (≈ 22.9 µM); in the data set on Serratia marcescens 7006 [4] (Serratia marcescens, 7006) it was 0.2 µg/mL (≈ 0.366 µM); in the data set with Serratia marcescens 7006 [4] (Serratia marcescens, 7006, read-out: M.I.C. (in parentheses)), 0.2 µg/mL (≈ 0.366 µM); in the data set on Citrobacter freundii 916 [5] (Citrobacter freundii, 916, read-out: M.I.C. (in parentheses)), 0.39 µg/mL (≈ 0.714 µM); with Escherichia coli KC-14 [6], 0.05 µg/mL (≈ 0.0915 µM); in data set [7] (Klebsiella aerogenes, 816, read-out: M.I.C. (in parentheses)) it was 6.25 µg/mL (≈ 11.4 µM). For the same compound, the MIC was 12.5 µg/mL (≈ 22.9 µM) in [8]; greater than 100 µg/mL in data set [2] (Staphylococcus aureus, 252R); 0.1 µg/mL (≈ 0.183 µM) in data set [9]; 0.2 µg/mL (≈ 0.366 µM) in data set [10]; 0.78 µg/mL (≈ 1.43 µM) in data set [11]; 12.5 µg/mL (≈ 22.9 µM) in [12]. Moreover, the MIC was 3.13 µg/mL (≈ 5.73 µM) in data set [13]; greater than 100 µg/mL in [1] (CN478); greater than 100 µg/mL in data set [1] (CN478, 20 h, read-out: minimum inhibitory concentration (M.I.C.)). Besides, the ED50 is 7.85 mg/kg in [14] (Staphylococcus aureus); 0.54 mg/kg in the data set on Serratia marcescens 7006 [15] (Serratia marcescens, 7006, im); 0.15 mg/kg in the data set with Citrobacter freundii 916 [16] (Citrobacter freundii, 916, im); 0.08 mg/kg in the data set on Escherichia coli KC-14 [17]; 26.4 mg/kg in data set [18] (Klebsiella aerogenes, 816, im).
Consider `Nc1nc(/C(=N/O[C@H]2CCNC2=O)C(=O)N[C@@H]2C(=O)N3C(C(=O)[O-])=C(C[n+]4ccccc4)CS[C@H]23)cs1` [Example 6, 7β-{(Z)-2-(2-aminothiazol-4-yl)-2-[(2-pyrrolidon-3-yl)oxyimino]acetamido}-3-(1-pyridiniomethyl)-3-cephem-4-carboxylate (l-isomer)], for which the MIC in [3] (setting [21]) was 1.56 µg/mL (≈ 2.87 µM); in the data set on Serratia marcescens 7006 [4] (setting [22]) it was no more than 0.05 µg/mL; in the data set on Serratia marcescens 7006 [4] (setting [23]) it was 0.05 µg/mL (≈ 0.092 µM); in the data set on Citrobacter freundii 916 [5] (setting [24]), 0.1 µg/mL (≈ 0.184 µM); with Escherichia coli KC-14 [6], 0.05 µg/mL (≈ 0.092 µM); in data set [7] (setting [25]) it was 0.39 µg/mL (≈ 0.717 µM). The MIC in data set [8] is 0.78 µg/mL (≈ 1.43 µM); in [2] (setting [26]) it was 25 µg/mL (≈ 46 µM); in [9] it was 0.05 µg/mL (≈ 0.092 µM); in data set [10] it was no more than 0.05 µg/mL; in data set [11] it was 0.39 µg/mL (≈ 0.717 µM); in data set [12] it was 1.56 µg/mL (≈ 2.87 µM). In addition, the MIC in [13] worked out at 0.2 µg/mL (≈ 0.368 µM); in [1] (setting [31]), 12.5 µg/mL (≈ 23 µM); in data set [1] (setting [20]), 12.5 µg/mL (≈ 23 µM). Also, the ED50 is 1.71 mg/kg in [14] (setting [27]); 0.14 mg/kg in the data set with Serratia marcescens 7006 [15] (setting [28]); 0.06 mg/kg with Citrobacter freundii 916 [16] (setting [29]); 0.05 mg/kg in the data set with Escherichia coli KC-14 [17]; 1.37 mg/kg in data set [18] (setting [30]). Further, in data set [19], the deaths of rats entry is recorded as “no rats die”.
